Measured values: PMC8122956, “Development of a Robust High-Throughput Screening Platform for Inhibitors of the Striatal-Enriched Tyrosine Phosphatase (STEP)” (International Journal of Molecular Sciences, 2021)
pIC50: −log10 of the molar value.

How the values were obtained:
[1] = target: T1, Human PTP1B catalytic domain (1-300) (Homo sapiens, UniProt P18031); assay: PTP1B Michaelis-Menten kinetic assay with DiFMUP; format: biochemical; details: PTP1B 0.5 nM
T1 construct: Human PTP1B catalytic domain (1–300) was cloned into PET-15b; His tag (pET-15b) (N); made in house; host or cells: E. coli (as for STEP46, BL21 (DE3))
T1 sequence (P18031 1-300): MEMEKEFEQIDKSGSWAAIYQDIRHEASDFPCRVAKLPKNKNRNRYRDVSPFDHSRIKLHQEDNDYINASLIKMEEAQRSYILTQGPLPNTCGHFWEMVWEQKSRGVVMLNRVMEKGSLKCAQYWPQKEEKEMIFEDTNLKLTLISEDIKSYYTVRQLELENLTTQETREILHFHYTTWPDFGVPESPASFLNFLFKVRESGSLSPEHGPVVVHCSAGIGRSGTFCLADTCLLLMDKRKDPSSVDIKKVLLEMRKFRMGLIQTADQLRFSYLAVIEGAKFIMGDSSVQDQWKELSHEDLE
Method: Human STEP46 and PTP1B activity was measured at room temperature (RT) in a 384-well plate format standard phosphatase fluorescence intensity assay using DiFMUP as a substrate and a total reaction volume of 25 μL. PTP working solutions were prepared at a 0.625 nM concentration (for a final concentration of 0.5 nM) in buffer containing 50 mM Bis-Tris pH 6.0, 50 mM NaCl, 5 mM DTT, and 0.01% Tween® 20. DiFMUP working solutions at 5X final concentration were prepared in 50 mM Bis-Tris pH 6.0, 50 mM NaCl, and 0.01% Tween 20. […] Fluorescence intensity was measured in kinetic mode (every minute for 10 min) using a Tecan Spark® Multimode Microplate Reader (Tecan, Groedig, Austria) with an excitation wavelength of 360 nm and an emission wavelength of 460 nm. The initial rates were determined from the linear progress curves of the PTP reaction. […] Michaelis–Menten plots were generated for each PTP construct, and Michaelis–Menten constants (Km) were calculated using the program GraphPad Prism (version 8, GraphPad Software, Inc., San Diego, CA, USA).

full-length human STEP46 = target: T2, full-length human STEP46 (Homo sapiens, UniProt P54829); assay: STEP46 biochemical inhibition assay (DiFMUP phosphatase fluorescence intensity assay); details: powder-confirmed hits, 10-pt dose-response, 0.5 nM STEP46, DiFMUP 3 μM, 20 min preincubation, pH 6.0, RT
T2 construct: Codon-optimized human full-length STEP46 cDNA was synthesized; His tag (pET-15b) (N); made in house; host or cells: E. coli BL21 (DE3)
T2 sequence (P54829 173-541 isoform P54829-3 limits assumed): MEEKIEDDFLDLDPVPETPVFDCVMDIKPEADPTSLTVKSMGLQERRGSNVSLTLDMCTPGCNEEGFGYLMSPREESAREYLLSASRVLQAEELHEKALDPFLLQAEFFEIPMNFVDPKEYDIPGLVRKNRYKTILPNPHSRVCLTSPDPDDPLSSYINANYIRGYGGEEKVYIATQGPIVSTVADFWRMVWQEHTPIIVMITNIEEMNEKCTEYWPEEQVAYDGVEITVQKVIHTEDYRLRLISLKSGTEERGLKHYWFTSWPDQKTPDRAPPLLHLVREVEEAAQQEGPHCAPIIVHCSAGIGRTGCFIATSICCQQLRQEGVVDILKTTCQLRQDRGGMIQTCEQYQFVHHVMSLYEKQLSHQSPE
Description: Employing the established STEP46 DiFMUP assay to determine enzymatic activity, we tested the 72 confirmed hits in 10-pt dose-response biochemical inhibition experiments. […] This rate of biochemically active compounds from confirmed PTS hits was in agreement with our prior experience from a similar PTS screening campaign against the SHP2 phosphatase (unpublished data). Next, we obtained commercial dry powders of the 17 biochemically active hits to confirm their activity from pure, fresh material. Powders were quality controlled using standard ^1H-NMR and LC-MS methods and repurified in cases where purity was determined to be below 95%. Pure powders were then retested in 10-pt dose-response STEP46 inhibition assays. Activity could be confirmed for 10 of the 17 powders.
(§1) Hit compounds were tested at room temperature (RT) in a 384-well plate format standard phosphatase fluorescence intensity assay using DiFMUP as a substrate and a total reaction volume of 25 μL. Compounds or vehicle (DMSO) were spotted in triplicate into a black Greiner FLUOTRAC 200 384-well microplate for a 10-point dose-response assay using the Echo 555 liquid handler. PTP working solutions were prepared at a 0.625 nM concentration (for a final concentration of 0.5 nM) in buffer containing 50 mM Bis-Tris pH 6.0, 50 mM NaCl, 5 mM DTT, and 0.01% Tween 20. DiFMUP working solutions at 5X final concentration were prepared in 50 mM Bis-Tris pH 6.0, 50 mM NaCl, and 0.01% Tween 20. PTP working solution (20 μL) was dispensed into the microplate and incubated with compound for 20 min at RT. […] The reaction was initiated by addition of 5 μL DiFMUP working solutions. Fluorescence intensity was measured in a kinetic mode as described above. IC50 values were calculated from the corrected initial rates by nonlinear regression using the program GraphPad Prism (version 8, GraphPad Software, Inc., San Diego, CA, USA).

[2] = target: T1, Human PTP1B catalytic domain (1-300); assay: PTP1B biochemical inhibition assay (DiFMUP phosphatase fluorescence intensity assay); details: powder-confirmed hits, 10-pt dose-response, 0.5 nM PTP1B, DiFMUP 25 μM, 20 min preincubation, pH 6.0, RT
Method: One of the major issues in prior STEP HTS campaigns using phosphatase activity as a readout was the lack of potent chemical matter with relative selectivity for STEP (PubChem AID: 588,619 and our unpublished data). […] For these assays, we expressed and purified the catalytic domain of PTP1B (1-300) using an approach similar to the one described for STEP46 above. The enzymatic activity of the highly pure PTP1B was assessed by adapting the DiFMUP phosphatase assay. Similar to STEP46, a concentration of 0.5 nM PTP1B was found optimal for kinetic experiments. […] Using DiFMUP at that concentration, we tested all 10 powder-confirmed hits in 10-pt dose-response inhibition assays against PTP1B.
as §1

AD mice = test system: AD mice; set-up: method as in PMID 25093460; details: cited from earlier work

| Structure (SMILES) | Km [1] [µM] | pIC50 (full-length human STEP46) | pIC50 [2] | Effect on cognitive deficits in AD mice (AD mice) |
| --- | --- | --- | --- | --- |
| Cc1cc(=O)oc2c(F)c(OP(=O)(O)O)c(F)cc12 [DiFMUP, 6,8-difluoro-4-methylumbelliferyl phosphate] | 25 | – | – | – |
| Cc1ccc(Nc2nc(CSc3nnnn3-c3ccccc3)cc(=O)[nH]2)cc1 [SBI-0738] | – | 5.24 | 5.21 | – |
| Cc1c2c(=O)n(-c3nc4ccccc4s3)[nH]c2cc(=O)n1CCC(C)C [SBI-0743] | – | 5.26 | 4.66 | – |
| O=C(CSc1c[nH]nn1)Nc1ccc(/C=C/c2ccccc2)cc1 [SBI-1359] | – | 5.15 | 4.55 | – |
| Nc1cc(C(F)(F)F)cc2c1SSSSS2 [TC-2153] | – | – | – | effectively reversed cognitive deficits |

Second part, led by results:

| Km [1] [µM] | pIC50 (full-length human STEP46) | pIC50 [2] | Structure (SMILES) | Effect on cognitive deficits in AD mice (AD mice) |
| --- | --- | --- | --- | --- |
| – | 5.28 | 4.85 | NC(=O)c1cccc(NC(=O)c2cc3c(ccc4ccccc43)o2)c1 [SBI-2136] | – |
| – | 5.30 | < 4.00 | Nc1oc2cc(O)ccc2c(=O)c1-c1nc2ccccc2s1 [SBI-6066] | – |
| – | 5.27 | < 4.00 | Cc1cc(C)cc(C(=O)Nc2ccc(-c3nc4ccccc4[nH]3)cc2)c1 [SBI-6083] | – |
| – | 4.74 | 4.24 | O=C(Cc1ccc(Cl)cc1)Nc1ccc(C(=O)Nc2cccc(O)c2)cc1 [SBI-6727] | – |
| – | 4.49 | < 4.00 | N#Cc1sc2nc(-c3ccc4c(c3)OCO4)ccc2c1N [SBI-7297] | – |
| – | 4.80 | 4.10 | COc1ccccc1-c1ccc2c(N)c(C#N)sc2n1 [SBI-8771] | – |
| – | 4.48 | 4.70 | Nc1ccc(NCC2CCCO2)c(C(=O)O)c1 (stereo not shown) [SBI-8929] | – |
